Type in all cases: cell-based
In one assay the test system is SW480 colon cancer cells. Kind of assay: Cell viability assay (CellTiter-Blue) in SW480 cells. To be noted: Homo sapiens, 96 h, four days; for EC50: CellTiter-Blue, 10 μM to 0.0045 μM. Put shortly: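 Four-day viability readout in SW480 cells: compound at 0.0045–10 μM (1:3 series), DMSO controls in eight replicates, CellTiter-Blue fluorescence after ~3 h. Values are regression-derived EC50s, or percent inhibition at 10 μM when EC50 exceeds 10 μM.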
Background: Alamar Blue is a resazurin reagent that responds to reducing activity.

In the next assay the test system is IL-6 (THP-1 cells). In words: IL-6 inhibition in LPS-stimulated THP-1 monocytes (HTRF). To be noted: Homo sapiens, IL-6 HTRF; for EC50: 500 ng/mL LPS, Table 6; for inhibition at 10 µM: LPS, Table 6, read-out: percent inhibition at 10 μM (given in parentheses for EC50 >10 μM). Put shortly: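 THP-1 cells in 1% FBS pre-incubated 2 h with compound (10-point 1:3 series from 10 μM, 0.1% DMSO), then stimulated with 500 ng/mL LPS for 22 h at 37 °C. IL-6 measured by HTRF 665/620 ratio, normalized to DMSO; EC50 by four-parameter fit, or % inhibition at 10 μM when EC50 >10 μM.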
For orientation: Time-resolved FRET reads energy transfer from a long-lived donor to a nearby acceptor.

Assay [1] has as its system Wnt activity (Sp5-Luc reporter, Wnt-responsive promoter) in SW480 colon carcinoma cells. In words: Wnt activity screening assay: Sp5-Luc reporter gene assay in SW480 cells. To be noted: Homo sapiens, overnight incubation, 10-point curve starting from 10 μM. Put shortly:
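Luminescence read-out (BrightGlo) from stable Sp5-Luc SW480 cells, normalized to DMSO-only wells. Cells were treated overnight at 37° C in 1% FBS medium across a 1:3, 10-point series starting at 10 μM. EC50 from variable-slope four-parameter regression; percent inhibition at 10 μM given where EC50 >10 μM.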

As a reminder, the EC50 is the concentration giving half of the maximal effect. A higher EC50 goes with lower potency in that assay. By inhibition is commonly meant the relative decrease from the control value, in per cent. As for `Cc1cn(-c2cccc3[nH]c(-c4n[nH]c5ccc(-c6cncc(NC(=O)CC(C)C)c6)nc45)nc23)cn1` [Compound 198, 3-Methyl-N-(5-(3-(4-(4-methyl-1H-imidazol-1-yl)-1H-benzo[d]imidazol-2-yl)-1H-pyrazolo[4,3-b]pyridin-5-yl)pyridin-3-yl)butanamide], the EC50 with SW480 colon cancer cells was 1.22 µM; with IL-6 (THP-1 cells) it was over 10 µM; in assay [1], 1.04 µM. For the same compound, the inhibition at 10 µM in the assay on IL-6 (THP-1 cells) came to 30.8%.

For the compound `CN1CCN(c2cccc3[nH]c(-c4n[nH]c5ccc(-c6cncc(OCc7ccccc7)c6)nc45)nc23)CC1` [Compound 646, 5-(5-(Benzyloxy)pyridin-3-yl)-3-(4-(4-methylpiperazin-1-yl)-1H-benzo[d]imidazol-2-yl)-1H-pyrazolo[4,3-b]pyridine], the 50% effective concentration (EC50) with SW480 colon cancer cells turned out to be 1.04 µM; with IL-6 (THP-1 cells), 3.34 µM; in assay [1], 1.06 µM.

As to `c1ccc(-c2ccc3[nH]nc(-c4nc5ccccc5[nH]4)c3n2)nc1` [Compound 280, 3-(1H-Benzo[d]imidazol-2-yl)-5-(pyridin-2-yl)-1H-pyrazolo[4,3-b]pyridine], the EC50 in the assay with SW480 colon cancer cells was found to be 1.89 µM; in the assay with IL-6 (THP-1 cells), 0.0727 µM; in assay [1] it was 0.611 µM.

In the case of `Fc1cccc(-c2cccc3[nH]c(-c4n[nH]c5ccc(-c6cncc(OC7CCNCC7)c6)nc45)nc23)c1` [Compound 512, 3-(4-(3-Fluorophenyl)-1H-benzo[d]imidazol-2-yl)-5-(5-(piperidin-4-yloxy)pyridin-3-yl)-1H-pyrazolo[4,3-b]pyridine], the figures for the EC50 (in the assay on SW480 colon cancer cells; with IL-6 (THP-1 cells); in assay [1]) were 2.27 µM, 1.52 µM and 2.14 µM, respectively.

Consider `COc1cncc(-c2ccc3[nH]nc(-c4nc5c(N6CCCCC6)cccc5[nH]4)c3n2)c1` [Compound 612, 5-(5-Methoxypyridin-3-yl)-3-(4-(piperidin-1-yl)-1H-benzo[d]imidazol-2-yl)-1H-pyrazolo[4,3-b]pyridine], for which the EC50 was 4.05 µM in the assay on SW480 colon cancer cells, over 10 µM with IL-6 (THP-1 cells) and 3.77 µM in assay [1]. In the assay on IL-6 (THP-1 cells), the inhibition at 10 µM came to 34.2%.

As for `Fc1cccc(-c2cccc3[nH]c(-c4n[nH]c5ccc(-c6cncc(OCCN7CCCC7)c6)nc45)nc23)c1` [Compound 514, 3-(4-(3-Fluorophenyl)-1H-benzo[d]imidazol-2-yl)-5-(5-(2-(pyrrolidin-1-yl)ethoxy)pyridin-3-yl)-1H-pyrazolo[4,3-b]pyridine], the EC50 in the assay on SW480 colon cancer cells is 1.12 µM; in the assay on IL-6 (THP-1 cells), 0.727 µM; in assay [1], 1.17 µM.

Turning to `c1cncc(-c2cccc3[nH]c(-c4n[nH]c5ccc(-c6cncc(OC7CCCCC7)c6)nc45)nc23)c1` [Compound 559, 5-(5-(Cyclohexyloxy)pyridin-3-yl)-3-(4-(pyridin-3-yl)-1H-benzo[d]imidazol-2-yl)-1H-pyrazolo[4,3-b]pyridine], the values for the concentration giving a half-maximal response (EC50) (with SW480 colon cancer cells; with IL-6 (THP-1 cells); in assay [1]) were 3.31 µM, 0.0028 µM and 3.14 µM, respectively.

Consider `O=C(Nc1cncc(-c2ccc3[nH]nc(-c4nc5c(-c6cccc(F)c6)cccc5[nH]4)c3n2)c1)C1CC1` [Compound 20, N-(5-(3-(4-(3-Fluorophenyl)-1H-benzo[d]imidazol-2-yl)-1H-pyrazolo[4,3-b]pyridin-5-yl)pyridin-3-yl)cyclopropanecarboxamide], for which the concentration for a half-maximal effect (EC50) in the assay on SW480 colon cancer cells is 4.24 µM; in the assay with IL-6 (THP-1 cells), over 10 µM; in assay [1], 1.08 µM. The inhibition at 10 µM in the assay with IL-6 (THP-1 cells) was determined as 0%.

For `CN(C)c1cncc(-c2ccc3[nH]nc(-c4nc5c(-c6cccs6)cccc5[nH]4)c3n2)c1` [Compound 343, N,N-Dimethyl-5-(3-(4-(thiophen-2-yl)-1H-benzo[d]imidazol-2-yl)-1H-pyrazolo[4,3-b]pyridin-5-yl)pyridin-3-amine], the EC50 in the assay on SW480 colon cancer cells amounted to 2.36 µM; in the assay on IL-6 (THP-1 cells) it was 3.67 µM; in assay [1], 1.72 µM.

Turning to `CN1CCN(c2cccc3[nH]c(-c4n[nH]c5ccc(-c6cncc(OC7CCCCC7)c6)nc45)nc23)CC1` [Compound 639, 5-(5-(Cyclohexyloxy)pyridin-3-yl)-3-(4-(4-methylpiperazin-1-yl)-1H-benzo [d]imidazol-2-yl)-1H-pyrazolo[4,3-b]pyridine], the EC50 with SW480 colon cancer cells amounted to 0.933 µM; in the assay on IL-6 (THP-1 cells), 4.9 µM; in assay [1], 1.03 µM.

`CN(C)Cc1cncc(-c2ccc3[nH]nc(-c4nc5c(-c6cccs6)cccc5[nH]4)c3n2)c1` [Compound 349, N,N-dimethyl-1-(5-(3-(4-(thiophen-2-yl)-1H-benzo[d]imidazol-2-yl)-1H-pyrazolo[4,3-b]pyridin-5-yl)pyridin-3-yl)methanamine]: the half-maximal effective concentration (EC50) was 2.89 µM in the assay on SW480 colon cancer cells, over 10 µM with IL-6 (THP-1 cells) and 4.1 µM in assay [1]. For the same compound, the inhibition at 10 µM in the assay with IL-6 (THP-1 cells) worked out at 14.5%.

For `O=C(Nc1cncc(-c2ccc3[nH]nc(-c4nc5c(-c6cccs6)cccc5[nH]4)c3n2)c1)C1CC1` [Compound 356, N-(5-(3-(4-(Thiophen-2-yl)-1H-benzo[d]imidazol-2-yl)-1H-pyrazolo[4,3-b]pyridin-5-yl)pyridin-3-yl)cyclopropanecarboxamide], the EC50 with SW480 colon cancer cells was 3.75 µM; in the assay on IL-6 (THP-1 cells), over 10 µM; in assay [1], 3.38 µM. The inhibition at 10 µM with IL-6 (THP-1 cells) came to 25.7%.

As to `Fc1cccc(-c2cccc3[nH]c(-c4n[nH]c5ccc(-c6ccncc6)nc45)nc23)c1` [Compound 18, 3-(4-(3-Fluorophenyl)-1H-benzo[d]imidazol-2-yl)-5-(pyridin-4-yl)-1H-pyrazolo[4,3-b]pyridine], the inhibition at 10 µM with SW480 colon cancer cells (10 μM, read-out: percent inhibition at 10 μM (given for EC50 of >10 μM)) is 0%. Also, the values for the EC50 (in the assay on SW480 colon cancer cells; in the assay on IL-6 (THP-1 cells); in assay [1]) were over 10 µM, 3.62 µM and 1.32 µM, respectively.

`Oc1cncc(-c2ccc3[nH]nc(-c4nc5c(-c6cccc(F)c6)cccc5[nH]4)c3n2)c1` [Compound 517, 5-(3-(4-(3-Fluorophenyl)-1H-benzo[d]imidazol-2-yl)-1H-pyrazolo[4,3-b]pyridin-5-yl)pyridin-3-ol]: the figures for the half-maximal effective concentration (EC50) (with SW480 colon cancer cells; in the assay with IL-6 (THP-1 cells); in assay [1]) were 4.54 µM, 9.7 µM and 6.55 µM, respectively.

On to `CCCC(=O)Nc1cncc(-c2ccc3[nH]nc(-c4nc5c(-c6ccsc6)cccc5[nH]4)c3n2)c1` [Compound 297, N-(5-(3-(4-(Thiophen-3-yl)-1H-benzo[d]imidazol-2-yl)-1H-pyrazolo[4,3-b]pyridin-5-yl)pyridin-3-yl)butyramide], for which the figures for the EC50 (in the assay on SW480 colon cancer cells; in the assay with IL-6 (THP-1 cells); in assay [1]) were 8.92 µM, over 10 µM and 0.643 µM, respectively. The inhibition at 10 µM in the assay with IL-6 (THP-1 cells) was 0%.

Take `CCCCC(=O)Nc1cncc(-c2ccc3[nH]nc(-c4nc5c(-c6cc(F)cc(NCCN(C)C)c6)cccc5[nH]4)c3n2)c1` [Compound 467, N-(5-(3-(4-(3-((2-(Dimethylamino)ethyl)amino)-5-fluorophenyl)-1H-benzo [d]imidazol-2-yl)-1H-pyrazolo[4,3-b]pyridin-5-yl)pyridin-3-yl)pentanamide]: the results for the EC50 (with SW480 colon cancer cells; with IL-6 (THP-1 cells); in assay [1]) were 1.1 µM, 1.32 µM and 1.3 µM, respectively.

In the case of `CCC(=O)Nc1cncc(-c2ccc3[nH]nc(-c4nc5c(-c6cccs6)cccc5[nH]4)c3n2)c1` [Compound 337, N-(5-(3-(4-(Thiophen-2-yl)-1H-benzo[d]imidazol-2-yl)-1H-pyrazolo[4,3-b]pyridin-5-yl)pyridin-3-yl)propionamide], the EC50 turned out to be 3.26 µM with SW480 colon cancer cells, 2.1 µM in the assay with IL-6 (THP-1 cells) and 3.52 µM in assay [1].

As to `Cc1ccc(-c2cccc3[nH]c(-c4n[nH]c5ccc(-c6cncc(NC(=O)C(C)C)c6)nc45)nc23)s1` [Compound 401, N-(5-(3-(4-(5-Methylthiophen-2-yl)-1H-benzo[d]imidazol-2-yl)-1H-pyrazolo [4,3-b]pyridin-5-yl)pyridin-3-yl)isobutyramide], the EC50 was 3.83 µM with SW480 colon cancer cells, over 10 µM with IL-6 (THP-1 cells) and 3.13 µM in assay [1]. Also, the inhibition at 10 µM with IL-6 (THP-1 cells) was determined as 45.4%.

Consider `c1cc(N2CCCCC2)c2nc(-c3n[nH]c4ccc(-c5cncc(OCCN6CCCC6)c5)nc34)[nH]c2c1` [Compound 610, 3-(4-(Piperidin-1-yl)-1H-benzo[d]imidazol-2-yl)-5-(5-(2-(pyrrolidin-1-yl)ethoxy)pyridin-3-yl)-1H-pyrazolo[4,3-b]pyridine], for which the results for the EC50 (with SW480 colon cancer cells; in the assay on IL-6 (THP-1 cells); in assay [1]) were 2.69 µM, 0.695 µM and 3.05 µM, respectively.

For the compound `CCCC(=O)Nc1cncc(-c2ccc3[nH]nc(-c4nc5c(-c6cc(F)cc(CNS(C)(=O)=O)c6)cccc5[nH]4)c3n2)c1` [Compound 493, N-(5-(3-(4-(3-Fluoro-5-(methylsulfonamidomethyl)phenyl)-1H-benzo[d]imidazol-2-yl)-1H-pyrazolo[4,3-b]pyridin-5-yl)pyridin-3-yl)butyramide], the values for the 50% effective concentration (EC50) (in the assay on SW480 colon cancer cells; in the assay on IL-6 (THP-1 cells); in assay [1]) were 3.93 µM, over 10 µM and 3.22 µM, respectively. Also, in the assay on IL-6 (THP-1 cells), the inhibition at 10 µM amounted to 35.3%.

Consider `CS(=O)(=O)NCc1cc(F)cc(-c2cccc3[nH]c(-c4n[nH]c5ccc(-c6cncnc6)nc45)nc23)c1` [Compound 503, N-(3-Fluoro-5-(2-(5-(pyrimidin-5-yl)-1H-pyrazolo[4,3-b]pyridin-3-yl)-1H-benzo[d]imidazol-4-yl)benzyl)methanesulfonamide], for which the 50% effective concentration (EC50) with SW480 colon cancer cells came to 8.14 µM; in the assay with IL-6 (THP-1 cells), 3.71 µM; in assay [1], 2.89 µM.
